From US7060490B1, “DNA encoding novel estrogen receptor” (Akzo Nobel N.V., priority 1996, dated 2006)

Tests used:
ERα = molecular target: T1, ERα (Homo sapiens, UniProt P03372); assay: Transactivation assay in stably transfected CHO cell line expressing ERα with rat oxytocin-luciferase reporter; assay type: cell-based; conditions: stably transfected CHO cell lines ERα vs ERβ; agonist curves FIGS. 5A, 5B
T1 construct: expressed in transfected cells

ERβ = ERβ (Homo sapiens, UniProt Q92731); assay: Transient transfection transactivation assay, rat oxytocin promoter-luciferase reporter in CHO cells, ERβ
ERβ, sequence (Q92731 whole entry): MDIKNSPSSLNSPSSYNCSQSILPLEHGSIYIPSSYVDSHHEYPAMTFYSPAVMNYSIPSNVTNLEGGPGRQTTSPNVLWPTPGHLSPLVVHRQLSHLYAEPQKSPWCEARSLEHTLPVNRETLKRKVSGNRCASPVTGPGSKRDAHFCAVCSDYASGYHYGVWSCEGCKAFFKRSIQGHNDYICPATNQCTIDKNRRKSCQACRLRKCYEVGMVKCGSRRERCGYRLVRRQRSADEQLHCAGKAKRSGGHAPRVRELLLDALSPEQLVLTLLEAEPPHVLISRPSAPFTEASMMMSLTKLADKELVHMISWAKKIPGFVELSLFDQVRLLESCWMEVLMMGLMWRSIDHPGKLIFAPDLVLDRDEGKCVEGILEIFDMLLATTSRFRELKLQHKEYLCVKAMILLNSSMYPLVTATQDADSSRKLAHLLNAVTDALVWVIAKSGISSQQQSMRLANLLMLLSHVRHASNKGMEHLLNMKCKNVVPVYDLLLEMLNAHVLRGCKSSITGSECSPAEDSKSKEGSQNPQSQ

T1 sequence (P03372 whole entry): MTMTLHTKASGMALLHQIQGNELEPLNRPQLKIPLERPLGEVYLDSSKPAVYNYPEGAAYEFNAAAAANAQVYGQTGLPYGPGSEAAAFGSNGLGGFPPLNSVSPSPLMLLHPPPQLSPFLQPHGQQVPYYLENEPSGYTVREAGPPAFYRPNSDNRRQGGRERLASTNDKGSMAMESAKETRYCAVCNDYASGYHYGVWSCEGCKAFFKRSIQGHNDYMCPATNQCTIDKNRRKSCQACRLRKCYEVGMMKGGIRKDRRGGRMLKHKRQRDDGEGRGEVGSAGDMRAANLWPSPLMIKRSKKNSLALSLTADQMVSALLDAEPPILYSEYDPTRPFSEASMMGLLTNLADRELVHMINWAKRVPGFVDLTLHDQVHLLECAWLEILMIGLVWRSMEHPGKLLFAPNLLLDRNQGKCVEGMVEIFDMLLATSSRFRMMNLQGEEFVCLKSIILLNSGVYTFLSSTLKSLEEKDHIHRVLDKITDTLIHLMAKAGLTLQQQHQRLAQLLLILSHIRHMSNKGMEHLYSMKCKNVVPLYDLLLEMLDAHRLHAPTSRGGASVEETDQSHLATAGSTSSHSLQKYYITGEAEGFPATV

stimulation of luciferase activity with ERβ (ERβ; 10^−9 mol/L 17β-estradiol, transient CHO, normalised for β-galactosidase, FIG. 3) [fold] | increase in luciferase activity as compared to untreated cells (ERβ; CHO cells transiently transfected with ERβ expression vector and reporter, hormones 10^−7 mol/L, FIG. 2) [fold] | SMILES | concentration for half-maximal transactivation, ERα as compared to ERβ (ERα)
– | – | C#C[C@]1(O)CC[C@H]2[C@@H]3[C@H](C)CC4=C(CC[C@@H](O)C4)[C@H]3CC[C@@]21C [Org4094] | much more pronounced
7 | 3 to 4 | C[C@]12CC[C@@H]3c4ccc(O)cc4CC[C@H]3[C@@H]1CC[C@@H]2O [17β-estradiol] | –
